Patent publication US8551489B2, “Methods for the treatment of cancers” (MUSC Foundation for Research Development, priority 2008, dated 2013)
Entries after “also recorded” stand apart in the source; their conditions may differ. Read-outs that look alike come from different tables or passages of the source.

Tests used:
[1] = tested on: PTN mRNA; assay: PTN mRNA expression after receptor antagonist / agonist; format: cell-based
From the text: (§1) FIGS. 14A-F. TP-β regulation of pleiotrophin (PTN). […] (FIG. 14D) PTN mRNA reduction after PTXA2 treatment. The PTN mRNA levels are restored following the co-treatment with U46619. (FIG. 14E) shRNAi mediated knockdown of β-arrestin-2 reduced agonist dependent increase in PTN mRNA in HT-1376 cells (PTEN:wt), and UM-UC-3 cells (PTEN:minus). (FIG. 14F) Effect of U46619 on JNK1/2 and FOXO3a phosphorylation.

[2] = tested on: bladder cancer cells; assay: Migration and invasion assays; format: cell-based, human
Description: Cell migration experiments were carried out using 8-μm pore size migration chambers (Falcon, Becton Dickinson) precoated at 4° C. overnight with fibronectin (Becton Dickinson) at a concentration of 5 μg per square centimeter in PBS. The following day, the fibronectin solution was aspirated and the migration chambers were rinsed one time with water and allowed to air dry prior to the migration experiment. Cell invasion experiments were carried out using re-hydrated 8-μm pore size invasion chambers precoated with Matrigel (Becton Dickinson). Cells at 80% confluence were trypsinized, harvested, and counted. For each condition, cells were seeded at 25,000 cells/well (T24) or 100,000 cells/well (SV-HUC) in 500 μl serum free media, then added to each migration and invasion chamber. Medium (750 μl) containing 10% serum was used as a chemoattractant in the lower chamber. Both upper and lower chambers contained the indicated compound. Cells were allowed to migrate for eight hours or invade for 24 hours at 37° C. in the presence of 5% CO2. […] Migrating and invading cells in 10 high power fields in each chamber were counted and the mean cell number was calculated. Each experiment was conducted in triplicate and repeated three times.

[3] = target: T1, TP-β (Homo sapiens, UniProt P21731); assay: Phosphorylation of ERK and FAK in SV-HUC cells transfected with TP-β; format: cell-based
T1 construct: expressed in transfected cells
T1 sequence (P21731 1-407 isoform P21731-2): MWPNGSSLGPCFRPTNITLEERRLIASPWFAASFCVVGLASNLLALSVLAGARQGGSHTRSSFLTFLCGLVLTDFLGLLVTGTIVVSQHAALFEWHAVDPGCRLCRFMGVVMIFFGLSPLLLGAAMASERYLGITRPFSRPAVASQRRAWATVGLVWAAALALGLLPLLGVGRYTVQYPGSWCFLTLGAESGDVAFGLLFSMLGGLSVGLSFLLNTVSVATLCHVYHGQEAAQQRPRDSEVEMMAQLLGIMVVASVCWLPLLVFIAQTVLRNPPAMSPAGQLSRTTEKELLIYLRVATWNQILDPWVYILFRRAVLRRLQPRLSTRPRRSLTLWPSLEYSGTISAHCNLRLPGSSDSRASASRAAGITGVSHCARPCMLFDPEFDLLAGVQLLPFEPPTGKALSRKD
Description: (§2) FIG. 7. Effects of U46619 and PTXA2 on phosphorylation of ERK and FAK. SV-HUC cells transfected with pcDNA3, TP-α or TP-β data are representative of 3 experiments.
(§3) Tumor and normal bladder tissues were snap-frozen in liquid nitrogen within 30 minutes after the surgery. Frozen sections were stained with hematoxylin and eosin and samples identified that had at least 70% tumor cells were selected for further studies. Pulverized tissue powders were lysed in RIPA buffer (150 mM NaCl, 50 mM Tris-HCl [pH 8.0], 1% Triton X100, 0.1% SDS, 1% deoxycholate and protease inhibitor cocktail [Complete Protease Inhibitors, Roche]) for 15 minutes on ice. Equal amounts of total protein (40 μg) were resolved by 12% SDS-PAGE and subjected to Western blot analyses using ECL system (Amersham-Pharmacia). Screening Western blots for TP-α and TP-β isoform expression in bladder cancer cell lines was done using rabbit polyclonal antibodies against TP-α or TP-β (described above). SVHUC cells stably transfected with TP-α or TP-β plasmids were screened for PCNA, tubulin, GAPDH, FAK, pFAK, ERK, pERK protein (Santa Cruz) and ICAM-1 (Abcam).
SV-HUC cells were grown to 80% confluence and transfected with 2 μg of pcDNA3 vector encoding either the TP-α or TP-β receptor isoforms. Transfection was performed in 6-well plates using the Fugene reagent (Roche) according to the manufacturer's instructions. After 72 hours post-transfection, cells were selected with 500 μg/ml G418 (Roche) and stable pools isolated after 14 days.

[4] = target: T2, TP-β and PTEN (Homo sapiens, UniProt P21731); assay: TP-β / PTEN co-immunoprecipitation and immunofluorescence; format: cell-based
T2 construct: endogenous in cells; host or cells: HT-1376 bladder cancer cells
T2 sequence (P21731 1-407 isoform P21731-2): as above
T2 sequence (P60484 2-403 partner limits assumed): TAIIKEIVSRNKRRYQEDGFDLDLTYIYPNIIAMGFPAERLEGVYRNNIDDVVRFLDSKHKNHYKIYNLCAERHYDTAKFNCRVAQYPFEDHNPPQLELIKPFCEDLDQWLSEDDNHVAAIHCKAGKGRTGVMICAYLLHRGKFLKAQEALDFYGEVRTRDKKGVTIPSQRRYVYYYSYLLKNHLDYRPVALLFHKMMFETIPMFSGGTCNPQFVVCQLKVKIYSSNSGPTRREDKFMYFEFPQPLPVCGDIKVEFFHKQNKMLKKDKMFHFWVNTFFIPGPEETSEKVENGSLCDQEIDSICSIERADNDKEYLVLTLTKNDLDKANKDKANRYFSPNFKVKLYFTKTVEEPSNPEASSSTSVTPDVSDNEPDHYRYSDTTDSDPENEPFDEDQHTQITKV
Description: FIGS. 13A-D. TP-β receptor localization and interaction with PTEN. (FIG. 13A) Co-immunoprecipitation followed by Western blot analysis. Immunoprecipitation with TP-α or TP-β specific antibodies was performed using extracts prepared from HT-1376 cells. […] Extracts prepared from solvent or agonist treated cells were immunoprecipitated with TP-β specific antibody. […] After TP-β stimulation with the U46619, PTEN translocated from the cytoplasm to the nuclear membrane. (FIG. 13D) PTEN lipid phosphatase activity was diminished in SV-HUC cells transfected with TP-β compared to those transfected with TP-α.

[5] = tested on: JNK1/2 and FOXO3a; assay: Effect of U46619 on JNK1/2 and FOXO3a; format: cell-based; settings: agonist stimulation
From the text: as §1

[6] = target: T3, TP-α (Homo sapiens, UniProt P21731); assay: Phosphorylation of ERK and FAK in SV-HUC cells transfected with TP-α or pcDNA3; format: cell-based
T3 construct: expressed in transfected cells
T3 sequence (P21731 1-343): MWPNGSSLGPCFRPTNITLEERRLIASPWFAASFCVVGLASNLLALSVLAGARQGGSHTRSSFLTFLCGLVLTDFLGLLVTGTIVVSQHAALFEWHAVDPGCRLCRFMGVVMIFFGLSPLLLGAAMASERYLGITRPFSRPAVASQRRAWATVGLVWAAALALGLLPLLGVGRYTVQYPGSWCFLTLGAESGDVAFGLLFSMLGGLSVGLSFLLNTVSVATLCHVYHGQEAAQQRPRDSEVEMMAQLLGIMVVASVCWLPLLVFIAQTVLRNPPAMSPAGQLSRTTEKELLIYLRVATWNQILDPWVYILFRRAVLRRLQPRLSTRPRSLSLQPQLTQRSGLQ
Description: as §2, §3
SV-HUC cells were grown to 80% confluence and transfected with 2 μg of pcDNA3 vector encoding either the TP-α or TP-β receptor isoforms. Transfection was performed in 6-well plates using the Fugene reagent (Roche) according to the manufacturer's instructions. […]

[7] = tested on: T24 cells; assay: Western blot of FAK and ERK phosphorylation in T24 cells; format: cell-based, human; settings: serum starved 12 hrs, treated 1 hr
Description: FIG. 6. Effect of TP receptor agonist (U46619) and antagonist (PTXA2) treatment on phosphorylation of FAK and ERK. T24 cells were serum starved for 12 hrs then treated with PTXA2 or U46619 for 1 hr. Tyrosine phosphorylation of FAK was assessed with western blot analysis on […] of cell lysate using anti-FAK pY397 (BD Bioscience) and pERK using a pERK specific antibody.
as §3

[8] = tested on: SV-HUC cells; assay: Western blot of FAK and ERK phosphorylation in SV-HUC cells; format: cell-based, human; settings: SV-HUC cells (TP-α expressor), not transfected
Description: as §3

[9] = tested on: tumor cell; assay: Combination with paclitaxel in vitro, tumor cell death; format: cell-based; settings: antagonist added to paclitaxel in vitro
[10] = tested on: T24 cells; assay: Sensitivity of T24 cells to cisplatin with TP receptor antagonists; format: cell-based, human
Description: SV-HUC and T24 cells were seeded at 5,000 cells per well in 96-well plates, and then treated with either compound or vehicle (ethanol) alone. The number of viable cells were quantified at the indicated time points, using the MTT (3-(4,5-Dimethyl-2-thiazolyl)-2,5-diphenyl-2H-tetrazolium bromide thiazole blue) assay, performed in quadruplicate, according to the manufacturer's instructions (Sigma-Aldrich). Optical density (OD) was measured at wavelength of 550 nm with reference wavelength of 690 nm.
Cell viability was analyzed under the microscope at 200× using trypan blue staining. Flow cytometric measurements of apoptosis were as follows. After 12 hours treatment with solvent control or TP receptor antagonists, cells were washed twice in ice cold phosphate buffered saline (PBS) and resuspended in binding buffer (10 mM HEPES, 140 mM NaCl, 2.5 mM CaCl2), at 1×10^6 cells in a 400 μl volume of binding buffer, in duplicate. Cells were incubated with 10 μl of human annexin V-phycoerythrin (PE) (BD Bioscience Inc.) for 15 min at room temperature in dark. […] The TUNEL assay was performed following the protocol of the TUNEL kit's manufacturer (Roche Diagnostics).

[11] = healthy individuals, patients with asthma or cardiovascular diseases, cited from earlier work
[12] = tested on: TCC-SUP human bladder cancer xenografts; assay: Xenograft mouse model, subcutaneous TCC-SUP in nu/nu mice; format: in vivo
Description: FIGS. 9A-B. TP receptor antagonist inhibits bladder cancer tumor growth. (FIG. 9A) Anti-tumor effects of GR32191 and cisplatin treatment in immunocompromised mice. Subcutaneous TCC-SUP human bladder cancer xenografts in nude mice were treated with vehicle control (12 mice), GR32191 (15 mice), 5 mg/kg cisplatin (cisplatin high) (12 mice), 5 mg/kg cisplatin in combination with GR32191 (13 mice), or 0.5 mg/kg (single low dose cisplatin) alone (10 mice) or 0.5 mg/kg cisplatin in combination with GR32191 (10 mice). Tumor size was measured over time. Kaplan-Meier curves showing time to tumor onset across the treatment groups. (FIG. 9B) Pathological evaluation of tumors derived from mice treated with GR32191 (n=15) and vehicle control mice (n=12). Representative images of CD31 staining, TUNEL, staining, PCNA staining, and H&E staining are shown. Graphs on the left indicate the quantitative analysis for each of these markers. Five fields from 5 independent tumors (total 25) were counted and scored blindly. Statistically significant (p<0.05) differences compared to vehicle alone were indicated (++p<0.001 or +p<0.05).
Antigen retrieval was done by heating in a microwave oven for 5 min on high power in 10 mM citrate, pH 6.0. Sections were washed and nonspecific binding was blocked with 10% horse serum in Tris-buffered saline (TBS) (50 mM Tris-HCl, 0.9% NaCl, pH 8.0) for 20 min, then incubated overnight at 4° C. with the TP isoform-specific primary antibodies at a 1:200 dilution in the blocking solution, anti-CD31 antibody (DAKO) was used at dilution 1:25. After overnight incubation at 4° C. followed by three 10-min washes in TBS. Immpress™ horse anti-rabbit secondary was incubated (Vector Laboratories, Burlingame, Calif.) for 45 min at room temperature. Slides were counterstained with hematoxylin. PCNA staining was done utilizing mouse monoclonal antibody against human PCNA (SantaCruz) at dilution 1:200. For TUNEL staining, sections were stained using the Situ Cell Death Detection Kit (Roche Applied Science).
TCC-SUP human bladder cancer cells or SV-HUC cells stably transfected with pcDNA3, TP-α or TP-β were used in a subcutaneous model in immunocompromised (nu/nu) mice. TCC-SUP cells (5×10^6 in PBS) or SV-HUC cells (5×10^7 in Matrigel™, BD Bioscience Inc.) were injected s.c. into the right and left flanks of anesthetized mice. Tumor growth was monitored in these mice twice a week. For mice injected with TCC-SUP, GR32191 or vehicle control was administered daily (20 mg/kg) by gavage with treatment initiated 24 hrs after initial injection. Two cycles of cisplatin (single high dose (5 mg/kg) or single low dose (0.5 mg/kg)) were administrated at day 4 and day 11 post tumor cell injection.
Kaplan-Meier survival curves were constructed for overall mouse survival for two groups with and without over-expressed TP-β receptor protein. ANOVA was used to analyze the in vitro drug treatments and drug combination data. Data are presented as the mean±SD. For all statistical tests, a two-sided p-value<0.05 was used to reject the null hypothesis. Kaplan-Meier curves were used to describe time to tumor onset in each mouse group, and a Cox proportional hazards model was used to estimate and test for differences across treatment groups. Hazard ratios and their 95% confidence intervals were to describe rates of tumor onset and p-values used to compare tumor onset across groups. The proportional hazards assumption was tested using Schoenfeld residuals. Differences in tumor growth were assessed by comparing the slopes of tumor growth across groups based on a linear longitudinal two-stage analysis where slopes were estimated in stage 1 and compared across mice in stage 2. Linear regression coefficients were evaluated using Wald tests. Statistical analyses were performed using R statistical software and utilized the survival library.

[13] = vehicle treated mice compared to GR32191 treated mice

With `CCCCC[C@H](O)/C=C/[C@@H]1[C@@H](C/C=C\CCCC(=O)O)[C@H]2CO[C@@H]1C2` [U46619] the PTN expression ([1]; co-incubation of agonist with PTXA2) was “restored”, the cell migration ([2]; T-24 cells, transwell migration assay, 1 μM U46619 for 12 hours) was “increase in migration” and the “phosphorylation of FAK and ERK on agonist stimulation” value ([3]; SV-HUC cells transfected with TP-β) was “stimulated pERK1/2 and pFAK; also recorded: stimulated the phosphorylation of FAK and ERK”. For the same compound, the “localization of TP-β and PTEN proteins” value ([4]; immunofluorescence, in the presence of agonist) was “translocated to the nuclear membrane”, the “association between TP-β and PTEN” value ([4]; immunoprecipitation with TP-β specific antibody, agonist versus solvent treated cells) was “Increased association between TP-β and PTEN” and the JNK1/2 activation [5] was “induced JNK1/2 activation”. For the same compound, the “expression of the transcription factor FOXO3a” value [5] was “reduced the expression”, the “phosphorylation of FAK and ERK on agonist stimulation” value [6] was “failed to stimulate” and the “phospho-ERK and phospho-FAK levels” value [7] was “significantly increased; also recorded: increased phosphorylation”.

In the case of `CCCCC[C@@H](O)/C=C/[C@H]1C[C@H]2C[C@@H]([C@@H]1C/C=C\CCCC(=O)O)C2(C)C` [PTXA2], the “PTN mRNA expression” value ([1]; incubation with receptor antagonist) is reported as “reduced PTN mRNA expression”, the “phospho-ERK and phospho-FAK levels” value [8] is reported as “no effect” and the “U46619-stimulated increase in pERK1/2 and pFAK” value ([3]; SV-HUC cells transfected with TP-β, antagonist added) is reported as “blocked”. For the same compound, the “basal levels of pFAK and pERK” value ([3]; TP-β transfected SV-HUC cells, data not shown) was “decreased the basal levels” and the “phospho-ERK and phospho-FAK levels” value [7] was “reduction in the elevated basal levels; also recorded: significantly reduced”.

With `O=C(O)CCC/C=C\C[C@@H]1[C@H](CNNC(=O)Nc2ccccc2)[C@H]2CC[C@@H]1O2` [SQ29548] the tumor cell death [9] was “synergistically increased tumor cell death” and the sensitivity to cisplatin [10] was “enhanced sensitivity to cisplatin”.

With `O=C(O)CC/C=C\CC[C@@H]1[C@@H](N2CCCCC2)[C@@H](O)C[C@@H]1OCc1ccc(-c2ccccc2)cc1` [GR32191] the tumor cell death [9] was “synergistically increased tumor cell death”, the “inhibition of cell migration and invasion” value ([2]; complementary studies, data not shown) was 65% and the sensitivity to cisplatin [10] was “enhanced sensitivity to cisplatin”. The “safety in clinical studies” value [11] was “shown to be safe”, the “safety in clinical studies” value ([11]; listed as GR) was “excellent safety profile” and the “time of tumor free mice” value ([12]; 20 mg/kg daily by gavage) was “significantly (P<0.04) extended”. The tumor growth ([12]; 20 mg/kg daily by gavage, monitored over time) was “significantly inhibited”, the “detection of palpable tumors / time of tumor onset” value ([12]; 20 mg/kg daily by gavage, started 24 hrs after cell injection) was “delayed” and the survival ([12]; GR32191 alone) was “prolonged survival”. The survival ([12]; GR32191 in combination with cisplatin) was “prolonged survival”, the “apoptosis, TUNEL staining” value ([12]; GR32191 treated compared to vehicle treated mice, p<0.05) was “significant increase in apoptosis” and the “microvessel density (MVD), CD31 staining” value ([12]; vehicle control compared to mice treated with GR32191) was “significantly higher (p<0.05) microvessel density”. The “cell proliferation, PCNA staining” value [12, 13] was “significantly increased (p<0.05) cell proliferation” and the “percentage of undifferentiated tumors, H&E staining” value [12, 13] was “significantly higher percentage (p<0.01) of undifferentiated tumors”.
